Structures can show the parent of a compound that is named as a salt. Where two headings read alike, the source gives them in different places.
System: Hela Cells
Assay: Cellular ER stress model (tunicamycin, WST-8 cell viability)
Conditions: Homo sapiens, HeLa, 48 h
[1] = read-out: % Cell Survival Cmpd(2.5 μM) + Tuni
[2] = read-out: Compounds ERS (vs Tn)
[3] = read-out: % Cell Survival Cmpd(2.5 μM) + Tuni, Hela cells, compound 2.5 μM + tunicamycin, WST-8 viability 48 hours after tunicamycin treatment
[4] = read-out: Compounds ERS (vs Tn), ERS activity vs Tuni = % cell survival (compound)/% cell survival (tunicamycin), compound 2.5 μM

SMILES	viability at 2.5 µM [1] [%]	viability at 2.5 µM [2] [%]	viability at 2.5 µM [3] [%]	viability at 2.5 µM [4] [%]
N=C(N)N/N=C/c1c(O)cccc1Cl [BC2-59-2]	39	94	–	–
NC(=S)N/N=C/c1c(F)cccc1Cl [JM1-113-2, (E)-2-(2-chloro-6-fluorobenzylidene)hydrazine-1-carbothioamide]	–	–	27.6	40
Cc1cccc(C)c1/C=N/NC(N)=S [JM1-121-2, (E)-2-(2,6-dimethylbenzylidene)hydrazine-1-carbothioamide]	–	–	23.4	34
NC(=S)N/N=C/c1ccc2ccccc2c1 [JM1-129-2, (E)-2-(naphthalen-2-ylmethylene)hydrazine-1-carbothioamide]	–	–	24.1	35
N=C(N)N/N=C/c1c(Br)cccc1[N+](=O)[O-] [JM1-175-2, (E)-2-(2-bromo-6-nitrobenzylidene)hydrazine-1-carboximidamide acetate]	–	–	44.9	65
N=C(N)N/N=C/c1cc(F)ccc1Cl [JM1-185-2, (E)-2-(2-chloro-5-fluorobenzylidene)hydrazine-1-carboximidamide acetate]	–	–	54.4	79
N=C(N)N/N=C/c1c(F)cccc1F [JM1-191-2, (E)-2-(2,6-difluorobenzylidene)hydrazine-1-carboximidamide acetate]	–	–	45.7	66
Nc1ccnn1-c1c(Cl)cccc1Cl [JM1-217-2, 1-(2,6-dichlorophenyl)-1H-pyrazol-5-amine]	–	–	40.6	97
N=C(N)N/N=C/c1cc(C(F)(F)F)ccc1Cl [JM1-221-2, (E)-2-(2-chloro-5-(trifluoromethyl)benzylidene)hydrazine-1-carboximidamide acetate]	–	–	38.6	56
N=C(N)N/N=C/c1c(F)cccc1C(F)(F)F [JM1-223-2, (E)-2-(2-fluoro-6-(trifluoromethyl)benzylidene)hydrazine-1-carboximidamide acetate]	–	–	37.5	54
CC/C(=N\NC(=N)N)c1cccc(Cl)c1 [JM1-257-2, (E)-2-(1-(3-chlorophenyl)propylidene)hydrazine-1-carboximidamide]	–	–	34.6	50
N=C(N)Nc1ccnn1-c1c(Cl)cccc1Cl [JM1-285-2, 1-(1-(2,6-dichlorophenyl)-1H-pyrazol-5-yl)guanidine]	–	–	41.9	101
Cc1cccc(C)c1NC1=NCCN1 [JM2-59-2, N-(2,6-dimethylphenyl)-4,5-dihydro-1H-imidazol-2-amine]	46.2	67	–	–
COc1cc(Cl)c(/C=N/NC(=N)N)c(Cl)c1 [JM2-63-2, (E)-2-(2,6-dichloro-4-methoxybenzylidene)hydrazine-1-carboximidamide]	–	–	44.6	65
Clc1cccc(Cl)c1/C=N/NC1=NCCN1 [JM2-83-2, (E)-2-(2-(2,6-dichlorobenzylidene)hydrazinyl)-4,5-dihydro-1H-imidazole hydrochloride]	–	–	53.8	125
Cc1cccc(C)c1/C=N/NC1=NCCN1 [JM2-85-2, (E)-2-(2-(2,6-dimethylbenzylidene)hydrazinyl)-4,5-dihydro-1H-imidazole hydrochloride]	–	–	62.3	145
Clc1cccc(Cl)c1CC1=NCCN1 [JM2-87-2, 2-(2,6-dichlorobenzyl)-4,5-dihydro-1H-imidazole]	–	–	54.3	124
O=[N+]([O-])c1cccc(Cl)c1/C=N/NC1=NCCN1 [JM2-89-2, (E)-2-(2-(2-chloro-6-nitrobenzylidene)hydrazinyl)-4,5-dihydro-1H-imidazole hydrochloride]	–	–	56.9	130
Clc1ccc(/C=N/NC2=NCCN2)cc1Cl [JM2-91-2, (E)-2-(2-(3,4-dichlorobenzylidene)hydrazinyl)-4,5-dihydro-1H-imidazole hydrochloride]	–	–	54.5	124
Fc1cccc(Cl)c1/C=N/NC1=NCCN1 [JM2-95-2, (E)-2-(2-(2-chloro-6-fluorobenzylidene)hydrazinyl)-4,5-dihydro-1H-imidazole hydrochloride]	–	–	53	121
Clc1cccc(Cl)c1NC1=NCCN1 [JM2-97-2, N-(2,6-dichlorophenyl)-4,5-dihydro-1H-imidazol-2-amine hydrochloride]	63.1	147	–	–
CC(C1=NCCN1)c1c(Cl)cccc1Cl (stereo not shown) [JM2-101-2, 2-(1-(2,6-dichlorophenyl)ethyl)-4,5-dihydro-1H-imidazole]	–	–	49.5	107

SMILES	viability at 2.5 µM [1] [%]	viability at 2.5 µM [2] [%]	viability at 2.5 µM [3] [%]	viability at 2.5 µM [4] [%]
Fc1cccc(F)c1/C=N/NC1=NCCN1 [JM2-103-2, (E)-2-(2-(2,6-difluorobenzylidene)hydrazinyl)-4,5-dihydro-1H-imidazole hydrochloride]	–	–	48.7	105
O=[N+]([O-])c1cccc(Br)c1/C=N/NC1=NCCN1 [JM2-109-2, (E)-2-(2-(2-bromo-6-nitrobenzylidene)hydrazinyl)-4,5-dihydro-1H-imidazole hydrochloride]	–	–	50.2	108
Clc1ccccc1/C=N/NC1=NCCN1 [JM2-113-2, (E)-2-(2-(2-chlorobenzylidene)hydrazinyl)-4,5-dihydro-1H-imidazole hydrochloride]	–	–	35.2	111
Fc1ccccc1/C=N/NC1=NCCN1 [JM2-115-2, (E)-2-(2-(2-fluorobenzylidene)hydrazinyl)-4,5-dihydro-1H-imidazole hydrochloride]	–	–	35.6	112
FC(F)(F)c1cccc(Cl)c1/C=N/NC1=NCCN1 [JM2-131-2, (E)-2-(2-(2-chloro-6-(trifluoromethyl)benzylidene)hydrazinyl)-4,5-dihydro-1H-imidazole hydrochloride]	–	–	62.6	198
CNC(=N)N/N=C/c1c(Cl)cccc1Cl [JM2-171-2, (E)-2-(2,6-dichlorobenzylidene)-N-methylhydrazine-1-carboximidamide hydroiodide]	–	–	67	212
N=C(N/N=C/c1c(Cl)cccc1Cl)Nc1ccccc1 [JM2-175-2, (E)-2-(2,6-dichlorobenzylidene)-N-phenylhydrazine-1-carboximidamide hydroiodide]	–	–	34.3	108
N=C(N)NNCc1c(Cl)cccc1Cl [JM2-185-2]	–	–	31.7	100
Brc1ccccc1/C=N/NC1=NCCN1 [JM2-191-2, (E)-2-(2-(2-bromobenzylidene)hydrazinyl)-4,5-dihydro-1H-imidazole hydrochloride]	–	–	39.5	125
N=C(N)N/N=C/c1c(Cl)cc(OCc2ccccc2)cc1Cl [JM2-195-2, (E)-2-(4-(benzyloxy)-2,6-dichlorobenzylidene)hydrazine-1-carboximidamide acetate]	–	–	24.1	76
Cc1cc(=O)nc(N/N=C/c2c(F)cccc2Cl)[nH]1 [JM2-203-2, (E)-2-(2-(2-chloro-6-fluorobenzylidene)hydrazinyl)-6-methylpyrimidin-4(1H)-one]	–	–	19.7	103
CCc1cccc(CC)c1/C=N/NC(=N)N [JM2-233-2]	–	–	31.8	121
Clc1cccc(Cl)c1/C=N/NC1=NCCCN1 [JM2-255-2, (E)-2-(2-(2,6-dichlorobenzylidene)hydrazinyl)-1,4,5,6-tetrahydropyrimidine hydrochloride]	–	–	63.8	201
Cc1cccc(Cl)c1/C=N/NC1=NCCCN1 [JM2-265-2, (E)-2-(2-(2-chloro-6-methylbenzylidene)hydrazinyl)-1,4,5,6-tetrahydropyrimidine hydrochloride]	–	–	47.2	179
Clc1cccc(Cl)c1CC1=NCCCN1 [JM2-271-2, 2-(2,6-dichlorobenzyl)-1,4,5,6-tetrahydropyrimidine]	–	–	32.3	123
N=C(N)NC(=O)Cc1c(Cl)cccc1[N+](=O)[O-] [JM2-275-2, N-carbamimidoyl-2-(2-chloro-6-nitrophenyl)acetamide hydrochloride]	–	–	29.8	101
N=C(N)N/N=C/c1cccs1 [JM2-279-2, (E)-2-(thiophen-2-ylmethylene)hydrazine-1-carboximidamide]	–	–	32.1	122
N=C(N)NC(=O)Cc1c(Cl)cccc1Cl [JM2-287-2, N-carbamimidoyl-2-(2,6-dichlorophenyl)acetamide hydrochloride]	–	–	33	111
CN(C)C(=N)N/N=C/c1c(Cl)cccc1Cl [JM2-289-2, (E)-2-(2,6-dichlorobenzylidene)-N,N-dimethylhydrazine-1-carboximidamide hydroiodide]	–	–	33.8	128
N=C(N)N/N=C/c1cc(Cl)ccc1Cl [JM3-11-2, (E)-2-(2,5-dichlorobenzylidene)hydrazine-1-carboximidamide acetate]	–	–	40.2	153
N=C(N)N/N=C/c1ccccc1[N+](=O)[O-] [JM3-13-2, (E)-2-(2-nitrobenzylidene)hydrazine-1-carboximidamide acetate]	–	–	27.4	104
N=C(N)N/N=C/c1ccccc1O [JM3-17-2, (E)-2-(2-hydroxybenzylidene)hydrazine-1-carboximidamide acetate]	–	–	28.7	109
